Eleven molecules from ChEMBL document CHEMBL1201862, “PubChem BioAssay data set” (2004) can be followed below.

Experiment in all cases: DTP human tumour cell line panel, 48 h
Test [1] deals with UACC-62.
The subject of test [2] is CAKI-1.
For test [3], the system named is NCI-H226.
Test [4] concerns MCF7.
Test [5] deals with HOP-92.
Test [6] concerns UACC-257.
The test system of test [7] is RXF 393.
For test [8], the system named is COLO 205.
Test [9] deals with EKVX.
Test [10] deals with OVCAR-5.
Test [11] relates to MOLT-4.
The test system of test [12] is SR.
In test [13] the test system is HCT-15.
Test [14] has as its system TK-10.
The subject of test [15] is HT-29.
The subject of test [16] is NCI-H522.
The subject of test [17] is LOX IMVI.
The subject of test [18] is SF-295.
The subject of test [19] is HL-60.

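Method: 48-hour compound exposure of cells in 96-well plates, five concentrations, linear interpolation of endpoints. At the GI50, growth is halved.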 Calls of active or inactive are those of the source. Rule as the data show it: active = GI50 up to about 1.1 µM and inactive = higher. A value given as a limit tells only on which side of the number the result lay.

A word on the GI50: it is the concentration at which growth is held to half of that of the control. `O=c1c2ccccc2nc(-c2cc3c(cc2Cl)Sc2nccn2S3(=O)=O)n1-c1ccccc1`: the GI50 in test [1] is 26.4 µM (inactive); in test [2] it was > 100 µM (inactive); in test [3] it was > 100 µM (inactive); in test [4], 14.2 µM (inactive); in test [5], 22.9 µM (inactive); in [6], 18 µM (inactive). The GI50 is 18.8 µM (inactive) in test [7]; > 100 µM (inactive) in test [8]; 21.4 µM (inactive) in [9]; > 100 µM (inactive) in [10]; > 100 µM (inactive) in [11]; 67.6 µM (inactive) in test [12]. For the same molecule, the 50% growth inhibitory concentration (GI50) in test [13] is 12.9 µM; in [14], 21.5 µM (inactive); in test [15] it was 40.5 µM (inactive); in test [16], > 100 µM (inactive); in test [17], 88.7 µM (inactive); in test [18] it was 21.6 µM (inactive). For the same molecule, the GI50 in test [19] was 4.13 µM (inactive).

For the molecule `Cn1c(=S)c2nc(SCCCc3ccccc3)[nH]c2n(C)c1=O`, the GI50 in test [1] is 26.2 µM (inactive); in [2], 20.9 µM (inactive); in test [3], 21.5 µM (inactive); in test [4], 22.1 µM (inactive); in test [5], 78.3 µM (inactive); in [6], 8.24 µM (inactive). Besides, the GI50 in [7] is 56.5 µM (inactive); in test [8], 12.6 µM (inactive); in [9], 13.7 µM (inactive); in test [10] it was 20.7 µM (inactive); in test [11], 13.5 µM (inactive); in [12], 4.85 µM (inactive). The GI50 in test [13] is 29.8 µM; in test [14], 17.4 µM (inactive); in test [15], 22.8 µM (inactive); in [16], 4.33 µM (inactive); in test [17], 27.5 µM (inactive); in test [18], 11.4 µM (inactive). Also, the GI50 in test [19] is 18.2 µM (inactive).

`CN(C)c1ccc(/C=C(\C#N)C(N)=C(C#N)C#N)cc1`: the GI50 in [1] is 94 µM (inactive); in test [2], > 100 µM (inactive); in [3] it was > 100 µM (inactive); in [4] it was > 100 µM (inactive); in test [5], > 100 µM (inactive); in test [6] it was 97.9 µM (inactive). In addition, the GI50 in test [7] was > 100 µM (inactive); in test [8], > 100 µM (inactive); in test [9], > 100 µM (inactive); in [10], > 100 µM (inactive); in [12], > 100 µM (inactive); in test [13], > 100 µM. In addition, the GI50 in [14], in test [15], in test [16], in test [17], in test [18] and in test [19] was > 100 µM (inactive) throughout.

For the molecule `COc1ccc2c(c1)CCCN1CCc3ccccc3C21` (stereo not drawn), the GI50 in test [1] was 32.5 µM (inactive); in test [2] it was 74.5 µM (inactive); in test [3], 30.1 µM (inactive); in test [4] it was 69.7 µM (inactive); in test [5], 37.2 µM (inactive); in [6], 47.8 µM (inactive). Further, the GI50 in [7] was 25.9 µM (inactive); in test [8] it was 22.4 µM (inactive); in test [9], 76.4 µM (inactive); in test [10] it was 70.3 µM (inactive); in test [11], 80.4 µM (inactive); in test [12], 20 µM (inactive). In addition, the 50% growth inhibitory concentration (GI50) in [13] was 30.5 µM; in [14] it was 43.1 µM (inactive); in [15], 33.3 µM (inactive); in [16], 52.1 µM (inactive); in [17] it was 32.5 µM (inactive); in [18], 24.7 µM (inactive). Also, the GI50 in test [19] is 17.1 µM (inactive).

Take `CC(C)(C)c1ccc(C(C)(C)C)c(N2C(=O)[C@@H]3[C@@H]4C=C[C@@H](C4)[C@]3(C)C2=O)c1`: the GI50 is 13.1 µM (inactive) in [1]; 22.2 µM (inactive) in test [2]; 26.9 µM (inactive) in test [3]; 22.4 µM (inactive) in test [4]; 0.869 µM (active) in test [5]; 23.1 µM (inactive) in test [6]. Also, the GI50 in test [7] is 15.5 µM (inactive); in test [8], 42.2 µM (inactive); in test [9], 47.3 µM (inactive); in [10], 86.5 µM (inactive); in test [11], 14.9 µM (inactive); in test [12], 5.2 µM (inactive). Besides, the GI50 in test [13] was 18.6 µM; in [14] it was 35 µM (inactive); in test [15], 29.2 µM (inactive); in test [16] it was 16.1 µM (inactive); in [17] it was 13.9 µM (inactive); in test [18] it was 27.7 µM (inactive). The GI50 in [19] is 16.4 µM (inactive).

`Cc1cc2nc(C=C(C(F)(F)F)C(F)(F)F)sc2cc1C`: the GI50 in test [1] was 1.85 µM (inactive); in test [2], 2.64 µM (inactive); in test [3] it was 1.21 µM (inactive); in [4], 2.63 µM (inactive); in test [5] it was 4.66 µM (inactive); in test [6], 4.55 µM (inactive). Besides, the GI50 is 1.16 µM (inactive) in test [7]; 1.4 µM (inactive) in test [8]; 2.15 µM (inactive) in test [9]; 2.59 µM (inactive) in test [10]; 0.11 µM (active) in test [11]; 0.0923 µM (active) in [12]. Also, the GI50 in test [13] was 1.71 µM; in test [14], 2.34 µM (inactive); in test [15], 0.929 µM (active); in test [16] it was 0.31 µM (active); in [17] it was 0.294 µM (active); in test [18], 3.15 µM (inactive). Besides, the GI50 in [19] was 0.482 µM (active).

`O=C1CC2(CCN(CC3COc4ccccc4O3)CC2)C(=O)N1N1CCCCCC1` (stereo not drawn): the GI50 is > 100 µM (inactive) in [1]; > 100 µM (inactive) in test [2]; 51.9 µM (inactive) in test [3]; 37.2 µM (inactive) in test [4]; 87.3 µM (inactive) in [5]; 13.9 µM (inactive) in [6]. The GI50 in test [7] is 64.6 µM (inactive); in test [8] it was 35.9 µM (inactive); in test [9] it was > 100 µM (inactive); in [10], 48.5 µM (inactive); in test [11], 20.7 µM (inactive); in test [12], > 100 µM (inactive). Moreover, the concentration for 50% growth inhibition (GI50) in test [13] was > 100 µM; in test [14], > 100 µM (inactive); in test [15], 21.4 µM (inactive); in test [16], 78.5 µM (inactive); in [17] it was 28.9 µM (inactive); in test [18], 71.1 µM (inactive). For the same molecule, the GI50 in [19] was 17.6 µM (inactive).

Turning to `NC1=Nc2cc(C(F)(F)F)ccc2Sc2nc3ccccc3n21`, the GI50 was 57.4 µM (inactive) in [1]; 84.9 µM (inactive) in [2]; 12.1 µM (inactive) in test [3]; > 76.9 µM (inactive) in test [4]; 7.6 µM (inactive) in test [5]; 41.2 µM (inactive) in test [6]. Moreover, the GI50 in test [7] is > 53.5 µM (inactive); in test [8] it was > 21.2 µM (inactive); in test [9], 13.8 µM (inactive); in test [10], > 52.8 µM (inactive); in test [11] it was 4.24 µM (inactive); in [12] it was 3.61 µM (inactive). Also, the GI50 in test [13] was > 100 µM; in [14], > 67 µM (inactive); in test [15], 12.6 µM (inactive); in [16] it was 10.4 µM (inactive); in [17], 4.85 µM (inactive); in test [18], > 57.9 µM (inactive). The GI50 in [19] is 3.15 µM (inactive).

With `Cc1ccccc1C(=O)N/N=C/c1ccc(Sc2nccn2C)c([N+](=O)[O-])c1`, the GI50 in [1] was 71.9 µM (inactive); in test [2], 78.9 µM (inactive); in test [3] it was > 100 µM (inactive); in [4], > 100 µM (inactive); in [5] it was 14.3 µM (inactive); in test [6], > 100 µM (inactive). Also, the GI50 was 74.3 µM (inactive) in test [7]; 56 µM (inactive) in test [8]; 64.9 µM (inactive) in test [9]; > 100 µM (inactive) in test [10]; 54.6 µM (inactive) in test [11]; 40 µM (inactive) in test [12]. For the same molecule, the 50% growth inhibitory concentration (GI50) is 66.8 µM in test [13]; > 100 µM (inactive) in [14]; 41.3 µM (inactive) in test [15]; 61.9 µM (inactive) in test [16]; 50.8 µM (inactive) in test [17]; 58.5 µM (inactive) in test [18]. The GI50 in test [19] was 44.3 µM (inactive).

For the molecule `C/C=C/[P+](c1ccccc1)(c1ccccc1)c1ccccc1`, the GI50 is 1.71 µM (inactive) in test [1]; > 68.1 µM (inactive) in test [2]; 3.57 µM (inactive) in test [3]; 1.18 µM (inactive) in [4]; 0.738 µM (active) in test [5]; 0.295 µM (active) in test [6]. The GI50 in test [7] is 6.14 µM (inactive); in [8], 0.101 µM (active); in test [9], 0.296 µM (active); in test [10], 4.24 µM (inactive); in test [11] it was 2.42 µM (inactive); in [12], 0.381 µM (active). Further, the 50% growth inhibitory concentration (GI50) in test [13] was 25.5 µM; in [14], 0.787 µM (active); in test [15], 0.914 µM (active); in test [16], 0.836 µM (active); in test [17], 1.34 µM (inactive); in test [18] it was 2.26 µM (inactive). Also, the GI50 in test [19] was 0.78 µM (active).

Regarding `Cc1c(-c2ccccc2)[nH]n(C2=NCCN2)c1=O`, the GI50 in [1] was > 100 µM (inactive); in test [2], > 100 µM (inactive); in [3] it was 52.8 µM (inactive); in test [4] it was > 100 µM (inactive); in [5] it was > 100 µM (inactive); in test [6], > 100 µM (inactive). Besides, the GI50 in test [7], in test [8], in test [9], in test [10], in [11] and in test [12] was > 100 µM (inactive) each time. Also, the GI50 was > 100 µM in test [13]; > 100 µM (inactive) in test [14]; 46.3 µM (inactive) in test [15]; > 100 µM (inactive) in test [16]; > 100 µM (inactive) in [17]; > 100 µM (inactive) in test [18]. The GI50 in test [19] is 88.5 µM (inactive).
